The target in one test is T1, ITK (Homo sapiens, UniProt Q08881).
T1 construct: purchased Promega Corporation
T1 sequence (Q08881 1-620): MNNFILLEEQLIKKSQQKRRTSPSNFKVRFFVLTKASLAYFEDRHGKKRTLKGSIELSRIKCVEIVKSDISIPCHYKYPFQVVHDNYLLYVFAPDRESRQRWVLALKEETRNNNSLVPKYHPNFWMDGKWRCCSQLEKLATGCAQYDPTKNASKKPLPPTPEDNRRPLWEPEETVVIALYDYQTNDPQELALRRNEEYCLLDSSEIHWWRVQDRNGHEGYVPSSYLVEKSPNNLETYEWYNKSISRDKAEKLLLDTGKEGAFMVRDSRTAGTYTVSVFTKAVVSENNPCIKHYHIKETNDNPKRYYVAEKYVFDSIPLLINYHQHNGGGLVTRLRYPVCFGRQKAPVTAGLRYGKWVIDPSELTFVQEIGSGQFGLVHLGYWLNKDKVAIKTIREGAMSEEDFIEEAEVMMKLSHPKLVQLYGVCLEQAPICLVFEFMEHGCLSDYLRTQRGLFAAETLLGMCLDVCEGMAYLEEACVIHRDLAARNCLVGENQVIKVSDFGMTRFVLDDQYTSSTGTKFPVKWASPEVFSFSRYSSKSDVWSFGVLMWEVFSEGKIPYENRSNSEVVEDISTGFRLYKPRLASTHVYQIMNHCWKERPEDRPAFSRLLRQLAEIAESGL
Nature of the test: Inhibitory activity against ITK, ADP-Glo + ITK Kinase enzyme system kit (Promega). The format is biochemical. Particulars: ITK enzyme 0.4 ng/μl; 15 min preincubation at room temperature; 1 hour at 30° C.; luminescence; duplicate. The method, then:
(§1) Inhibitory activities against BTK and ITK were measured for the compounds prepared in the above Examples as follows.
The inhibitory activity against ITK was evaluated using ‘ADP-Glo™+ITK Kinase enzyme system’ kit (Promega Corporation). […] To the plate on which reactions were completed, 5 μl of substrate and 5 μl of ATP prepared so as to have a final concentration of […] were added and then allowed to react at 30° C. for 1 hour. All wells of the plate were treated with 25 μl of ADP-Glo™ reagent and then allowed to react at 30° C. for 40 minutes. After that, all wells were treated with 50 μl of kinase detection buffer, and then allowed to react at 30° C. for 30 minutes under light shielding conditions. For the plate on which all reactions were completed, luminescence was measured and the results were calculated. Evaluation was carried out in duplicate, and negative control and positive control were calculated depending on whether or not the enzyme was added without treatment of the compound. The IC50 was calculated based on the calculated values.
(In ADP-Glo the light output rises with the ADP produced.)

Another test has as its target T2, BTK (Homo sapiens, UniProt Q06187).
T2 construct: purchased Promega Corporation
Nature of the test: Inhibitory activity against BTK, ADP-Glo + BTK Kinase enzyme system kit (Promega). The format is biochemical. As to conditions: BTK enzyme 1 ng/μl; ATP 10 µM; 15 min preincubation at room temperature; 1 hour at 30° C.; luminescence; duplicate. The method, then: as §1
The inhibitory activities against BTK were evaluated using ‘ADP-Glo™+BTK Kinase enzyme system’ kit (Promega Corporation). […] 5 μl of substrate and 5 μl of ATP prepared so as to have a final concentration of 10 µM were added to the plate on which reactions were completed, and then allowed to react at 30° C. for 1 hour. All wells of the plate were treated with 25 μl of ADP-Glo™ reagent and allowed to react at 30° C. for 40 minutes. After that, all wells were treated with 50 μl of kinase detection buffer, and then reacted at 30° C. for 30 minutes under light shielding conditions. For the plate on which all reactions were completed, luminescence was measured and the results were calculated. Evaluation was carried out in duplicate, and negative control and positive control were calculated depending on whether or not the enzyme was added without treatment of the compound. The IC50 was calculated based on the calculated values.

For 18 compounds, IC50 results are on record in patent US12227498B2, “Heterocyclic amine derivative and pharmaceutical composition comprising same” (Daewoong Pharmaceutical Co., Ltd., priority 2018, dated 2025).

T2 sequence (Q06187 whole entry): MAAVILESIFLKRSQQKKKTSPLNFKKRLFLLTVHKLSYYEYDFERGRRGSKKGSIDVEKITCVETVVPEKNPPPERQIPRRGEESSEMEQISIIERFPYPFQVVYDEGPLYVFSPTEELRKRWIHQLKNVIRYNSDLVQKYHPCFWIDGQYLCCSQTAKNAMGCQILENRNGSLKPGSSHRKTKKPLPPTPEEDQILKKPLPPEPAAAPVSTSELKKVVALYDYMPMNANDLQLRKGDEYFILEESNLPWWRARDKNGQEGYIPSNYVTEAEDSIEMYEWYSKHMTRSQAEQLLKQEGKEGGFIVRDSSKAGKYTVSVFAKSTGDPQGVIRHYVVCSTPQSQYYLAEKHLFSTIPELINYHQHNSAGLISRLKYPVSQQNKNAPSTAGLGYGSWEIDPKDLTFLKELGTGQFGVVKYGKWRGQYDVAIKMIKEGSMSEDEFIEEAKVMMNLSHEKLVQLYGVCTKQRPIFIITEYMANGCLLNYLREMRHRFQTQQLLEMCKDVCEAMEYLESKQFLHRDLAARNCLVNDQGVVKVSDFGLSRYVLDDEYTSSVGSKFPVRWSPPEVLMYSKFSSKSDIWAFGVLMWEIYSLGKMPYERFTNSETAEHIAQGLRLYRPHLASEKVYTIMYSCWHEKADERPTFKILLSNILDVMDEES

Take `C=CC(=O)N1CCC[C@H](Nc2cc(Cc3ccccn3)cc(Nc3ncc(C)s3)n2)C1` [Example 37, (S)-1-(3-((6-((5-methylthiazol-2-yl)amino)-4-(pyridin-2-ylmethyl)pyridin-2-yl)amino)piperidin-1-yl) prop-2-en-1-one]: the IC50 turned out to be 1.9 nM at ITK and 3.2 nM on BTK.

As for `C=CC(=O)N1CCC[C@H](Nc2cc(C#N)cc(Nc3ncc(C)s3)n2)C1` [Example 38], the IC50 on ITK was 2.6 nM; at BTK, 1.6 nM.

In the case of `C=CC(=O)N1CCC[C@H](Nc2cc(-c3ccccc3)cc(Nc3ncc(C)s3)n2)C1` [Example 39, (S)-1-(3-((6-((5-methylthiazol-2-yl)amino)-4-phenylpyridin-2-yl)amino)piperidin-1-yl) prop-2-en-1-one], the IC50 came to 4.8 nM on ITK and 7.5 nM at BTK.

Regarding `C#CC(=O)N1CCC[C@H](Nc2cc(OC3CCN(C)CC3)cc(Nc3ncc(C)s3)n2)C1` [Example 40, (S)-1-(3-((4-((1-methylpiperidin-4-yl)oxy)-6-((5-methylthiazol-2-yl)amino)pyridin-2-yl)amino)piperidin-1-yl) prop-2-yn-1-one], the IC50 at ITK was 10.8 nM; at BTK, 10.3 nM.

Take `CC#CC(=O)N1CCC[C@H](Nc2cc(OC3CCN(C)CC3)cc(Nc3ncc(C)s3)n2)C1` [Example 41, (S)-1-(3-((4-((1-methylpiperidin-4-yl)oxy)-6-((5-methylthiazol-2-yl)amino)pyridin-2-yl)amino)piperidin-1-yl) but-2-yn-1-one]: the values for the IC50 at ITK and at BTK were 128 nM and 9.5 nM, respectively.

For the compound `C=CC(=O)N1CCC[C@H](Nc2cc(CN3CCN(CC)CC3)cc(Nc3ncc(C)s3)n2)C1` [Example 42, (S)-1-(3-((4-((4-ethylpiperazin-1-yl)methyl)-6-((5-methylthiazol-2-yl)amino)pyridin-2-yl)amino)piperidin-1-yl) prop-2-en-1-one], the values for the IC50 on ITK and at BTK were 2.2 nM and 2.5 nM, respectively.

In the case of `C=CC(=O)N1CCC[C@H](Nc2cc(CN3CCN(C)CC3)cc(Nc3ncc(C)s3)n2)C1` [Example 43], the IC50 is 2.1 nM on ITK and 1.6 nM on BTK.

As to `Cc1cc(CN2CCOCC2)cc(Nc2ncc(C)s2)n1` [Example 44, 5-methyl-N-(6-methyl-4-(morpholinomethyl)pyridin-2-yl) thiazol-2-amine], the IC50 is around 1000 nM on ITK and above 1000 nM at BTK.

With `Cc1cnc(Nc2cc(CN3CCOCC3)cc(N[C@H]3CCCN(C(=O)CCCl)C3)n2)s1` [Example 45, (S)-3-chloro-1-(3-((6-((5-methylthiazol-2-yl)amino)-4-(morpholinomethyl)pyridin-2-yl)amino)piperidin-1-yl) propan-1-one], the values for the IC50 on ITK and at BTK were 91.6 nM and 30.8 nM, respectively.

Consider `Cc1cnc(Nc2cc(CN3CCOCC3)cc(N[C@H]3CCCN(C(=O)/C=C/Cl)C3)n2)s1` [Example 46, (S,E)-3-chloro-1-(3-(6-(5-methylthiazol-2-ylamino)-4-(morpholinomethyl)pyridin-2-ylamino)piperidin-1-yl) prop-2-en-1-one], for which the figures for the IC50 at ITK and at BTK were 31.8 nM and 5.2 nM, respectively.

As for `C=CC(=O)N1CCC[C@H](Nc2cc(CN3CCN(CCCN)CC3)cc(Nc3ncc(C)s3)n2)C1` [Example 47, (S)-1-(3-(4-((4-(3-aminopropyl)piperazin-1-yl)methyl)-6-(5-methylthiazol-2-vlamino)pyridin-2-vlamino)piperidin-1-yl) prop-2-en-1-one], the IC50 at ITK was 9 nM; at BTK, 6.1 nM.

`C=CC(=O)N1CCC[C@H](Nc2cc(CN3CCOCC3)cc(Nc3cc[nH]n3)n2)C1` [Example 48, (S)-1-(3-(6-(1H-pyrazol-3-ylamino)-4-(morpholinomethyl)pyridin-2-ylamino)piperidin-1-yl) prop-2-en-1-one]: the IC50 at ITK and on BTK was around 1000 nM in each case.

Regarding `C=CC(=O)N1CCC[C@H](Nc2cc(CN3CCOCC3)cc(Nc3ncc(C(F)(F)F)s3)n2)C1` [Example 49, (S)-1-(3-(4-(morpholinomethyl)-6-(5-(trifluoromethyl)thiazol-2-ylamino)pyridin-2-ylamino)piperidin-1-yl) prop-2-en-1-one], the IC50 at ITK came to 3 nM; on BTK it was 2 nM.

Turning to `C=CC(=O)N1CCC[C@H](Nc2cc(CN3CCOCC3)cc(Nc3cc(Cl)[nH]n3)n2)C1` [Example 50, (S)-1-(3-(6-(5-chloro-1H-pyrazol-3-ylamino)-4-(morpholinomethyl)pyridin-2-ylamino)piperidin-1-yl) prop-2-en-1-one], the IC50 on ITK and on BTK was around 1000 nM in each case.

`C=CC(=O)N1CCC[C@H](Nc2cc(CN3CCOCC3)cc(Nc3nccs3)n2)C1` [Example 51, (S)-1-(3-(4-(morpholinomethyl)-6-(thiazol-2-ylamino)pyridin-2-ylamino)piperidin-1-yl) prop-2-en-1-one]: the IC50 on ITK and on BTK was around 1000 nM in each case.

`C=CC(=O)N1CCC[C@H](Nc2nc(Nc3ncc(C)s3)cc(CN3CCOCC3)c2F)C1` [Example 52, (S)-1-(3-(3-fluoro-6-(5-methylthiazol-2-ylamino)-4-(morpholinomethyl)pyridin-2-ylamino)piperidin-1-yl) prop-2-en-1-one]: the IC50 at ITK and on BTK was around 1000 nM throughout.

With `C=CC(=O)N1CCC[C@H](Nc2cc(CN3CCOCC3)cc(Nc3ccccn3)n2)C1` [Example 53, (S)-1-(3-(4-(morpholinomethyl)-6-(pyridin-2-ylamino)pyridin-2-ylamino)piperidin-1-yl) prop-2-en-1-one], the results for the IC50 at ITK and on BTK were 42.8 nM and 7.7 nM, respectively.

Turning to `C=CC(=O)N1CCC[C@H](Nc2cc(CN3CCOCC3)cc(Nc3ncccn3)n2)C1` [Example 54, (S)-1-(3-(4-(morpholinomethyl)-6-(pyrimidin-2-ylamino)pyridin-2-ylamino)piperidin-1-yl) prop-2-en-1-one], the IC50 on ITK and on BTK was around 1000 nM in each case.

The IC50 is the concentration that inhibits the measured activity by half.
